Assays:
[1] = for viscosity / mass density: 101 kPa, Liquid; for viscosity: Falling or rolling sphere viscometry; for mass density: Vibrating tube method
[2] = activity coefficient (dimensionless); of the first substance listed, at infinite dilution; xn = mol fraction of the nth substance listed; conditions: 101.33 kPa, Liquid, Chromatography, x1 = 0

N#C[N-]C#N.OCCC[n+]1ccccc1 [N-(3-hydroxypropyl)pyridinium dicyanamide]
[1]
Conditions	mass density [kg/m3]	viscosity [mPa·s]
298.15 K	1171.01	115
303.15 K	1167.78	–
308.15 K	1164.58	70.8
313.15 K	1161.4	–
318.15 K	1158.23	47.1
323.15 K	1155.09	–
328.15 K	1151.97	32.9
333.15 K	1148.86	–
338.15 K	1145.77	23.4
343.15 K	1142.69	–
348.15 K	1139.63	17.8
353.15 K	1136.59	–
358.15 K	1133.57	14
363.15 K	1130.58	–
368.15 K	1127.62	–

Conditions	Glass transition temperature [°C]
[1], Glass, DSC	-81

CCCCCCCCC [nonane] + N#C[N-]C#N.OCCC[n+]1ccccc1
[2]
Conditions	activity coefficient
298.15 K	1450
308.15 K	1300
318.15 K	1180
328.15 K	1080
338.15 K	985
348.15 K	906
358.15 K	837

C=CCCCCCC [oct-1-ene] + N#C[N-]C#N.OCCC[n+]1ccccc1
[2]
Conditions	activity coefficient
298.15 K	391
308.15 K	367
318.15 K	346
328.15 K	326
338.15 K	310
348.15 K	295
358.15 K	282

CCCCCCCC [octane] + N#C[N-]C#N.OCCC[n+]1ccccc1
[2]
Conditions	activity coefficient
298.15 K	930
308.15 K	846
318.15 K	772
328.15 K	710
338.15 K	654
348.15 K	605
358.15 K	564

CCCCCO [pentan-1-ol] + N#C[N-]C#N.OCCC[n+]1ccccc1
[2]
Conditions	activity coefficient
318.15 K	4.98
328.15 K	4.89
338.15 K	4.81
348.15 K	4.74
358.15 K	4.68
368.15 K	4.61

CCCC(C)=O [pentan-2-one] + N#C[N-]C#N.OCCC[n+]1ccccc1
[2]
Conditions	activity coefficient
318.15 K	5.58
328.15 K	5.77
338.15 K	5.96
348.15 K	6.14
358.15 K	6.33
368.15 K	6.5

CCC(=O)CC [pentan-3-one] + N#C[N-]C#N.OCCC[n+]1ccccc1
[2]
Conditions	activity coefficient
318.15 K	5.68
328.15 K	5.92
338.15 K	6.15
348.15 K	6.36
358.15 K	6.57
368.15 K	6.79

CCCO [propan-1-ol] + N#C[N-]C#N.OCCC[n+]1ccccc1
[2]
Conditions	activity coefficient
318.15 K	2.03
328.15 K	2.03
338.15 K	2.02
348.15 K	2.02
358.15 K	2.01
368.15 K	2.01

CC(C)O [propan-2-ol] + N#C[N-]C#N.OCCC[n+]1ccccc1
[2]
Conditions	activity coefficient
318.15 K	2.24
328.15 K	2.2
338.15 K	2.18
348.15 K	2.15
358.15 K	2.13
368.15 K	2.11

CCCc1ccccc1 [propylbenzene] + N#C[N-]C#N.OCCC[n+]1ccccc1
[2]
Conditions	activity coefficient
318.15 K	30.5
328.15 K	30.8
338.15 K	31.1
348.15 K	31.3
358.15 K	31.6
368.15 K	31.8

c1ccncc1 [pyridine] + N#C[N-]C#N.OCCC[n+]1ccccc1
[2]
Conditions	activity coefficient
318.15 K	1.39
328.15 K	1.48
338.15 K	1.56
348.15 K	1.64
358.15 K	1.72
368.15 K	1.8

C=Cc1ccccc1 [styrene] + N#C[N-]C#N.OCCC[n+]1ccccc1
[2]
Conditions	activity coefficient
318.15 K	6.93
328.15 K	7.23
338.15 K	7.51
348.15 K	7.79
358.15 K	8.06
368.15 K	8.32

C1CCOC1 [tetrahydrofuran] + N#C[N-]C#N.OCCC[n+]1ccccc1
[2]
Conditions	activity coefficient
318.15 K	3.1
328.15 K	3.25
338.15 K	3.38
348.15 K	3.53
358.15 K	3.66
368.15 K	3.79

c1ccsc1 [thiophene] + N#C[N-]C#N.OCCC[n+]1ccccc1
[2]
Conditions	activity coefficient
318.15 K	2.6
328.15 K	2.71
338.15 K	2.81
348.15 K	2.93
358.15 K	3.03
368.15 K	3.14

Cc1ccccc1 [toluene] + N#C[N-]C#N.OCCC[n+]1ccccc1
[2]
Conditions	activity coefficient
318.15 K	8.44
328.15 K	8.72
338.15 K	9.03
348.15 K	9.31
358.15 K	9.58
368.15 K	9.85

O [water] + N#C[N-]C#N.OCCC[n+]1ccccc1
[2]
Conditions	activity coefficient
328.15 K	0.399
338.15 K	0.411
348.15 K	0.421
358.15 K	0.432
